“Also recorded” adds a separate entry of the source.

The text below walks through data of patent US9422335B2, “Modified toll-like receptor 2 (TLR2) ligands as inhibitors of neutrophil recruitment” (priority 2011, dated 2016).

Test [1] has as its system neutrophil emigration into the cremaster tissue. Description: Intravital microscopy of cremaster muscle after intrascrotal injection. The conditions noted are these: for effect of antagonist pretreatment on LTA and GML inhibition of TNFα-induced neutrophil recruitment: 0.5 μg, 1.5 hr pre-treatment; for inhibitory properties toward LPS-induced neutrophil emigration: LPS 10 ng/g plus ligand 5 ng/g, 4.5 hours; for neutrophil recruitment induced by the ligand itself: wild-type mice, intrascrotal injection, 4.5 hr. The format is in vivo, mice. The protocol:
Intravital microscopy was performed on male mice, anaesthetized with an intraperitoneal injection of a 10 mg/kg xylazine (Bayer) and 200 mg/kg ketamine hydrochloride (Rogar/STB). The left jugular vein was cannulated to administer additional anaesthetic when necessary. An incision in the scrotal skin exposed the left cremaster muscle, which was then carefully dissected free of the associated fascia. The cremaster muscle was cut longitudinally with a cautery pen. The testicle and the epididymis were then separated from the underlying muscle and were moved into the abdominal cavity. The muscle was held flat on an optically clear viewing pedestal and was secured along the edges with 4-0 suture. The exposed tissue was superfused with 37° C.-warmed bicarbonate-buffered saline (pH 7.4). An upright microscope (Mikron; Carl Zeiss) was used to examine the cremasteric microcirculation and a video camera (XR/MEGA10-AM or XR/MEGA10 Panasonic) and DVD recorder were used to capture images. Three to five cremasteric venules (25 to 40 μm in diameter) were analysed during playback analysis. A leukocyte was considered to be adherent if it remained stationary for at least 30 seconds, and total leukocyte adhesion was quantified as the number of adherent cells within a 100-μm length of venule. Leukocyte emigration was defined as the number of cells in the extravascular space within the field of view adjacent to the observed venule.

In test [2] the test system is MIP2-induced neutrophil emigration. As to the kind of experiment: Intravital microscopy of exteriorized cremaster superfused with MIP2. It is filed as in vivo, mice. The conditions noted are these: 0.5 μg, 1.5 hr pre-treatment; superfusion 60 min.
Experimental: Intravital microscopy was performed on male mice, anaesthetized with an intraperitoneal injection of a 10 mg/kg xylazine (Bayer) and 200 mg/kg ketamine hydrochloride (Rogar/STB). The left jugular vein was cannulated to administer additional anaesthetic when necessary. An incision in the scrotal skin exposed the left cremaster muscle, which was then carefully dissected free of the associated fascia. The cremaster muscle was cut longitudinally with a cautery pen. The testicle and the epididymis were then separated from the underlying muscle and were moved into the abdominal cavity. The muscle was held flat on an optically clear viewing pedestal and was secured along the edges with 4-0 suture. The exposed tissue was superfused with 37° C.-warmed bicarbonate-buffered saline (pH 7.4). An upright microscope (Mikron; Carl Zeiss) was used to examine the cremasteric microcirculation and a video camera (XR/MEGA10-AM or XR/MEGA10 Panasonic) and DVD recorder were used to capture images. Three to five cremasteric venules (25 to 40 μm in diameter) were analysed during playback analysis. A leukocyte was considered to be adherent if it remained stationary for at least 30 seconds, and total leukocyte adhesion was quantified as the number of adherent cells within a 100-μm length of venule. […]
The subject of test [3] is bone marrow-derived macrophages. As to the kind of experiment: Internalization of FITC-FSL1/GML. The format is cell-based, mice. The protocol:
Bone marrow-derived macrophages were isolated from wild-type and TLR2−/− mice and cultured on glass coverslips. The cells were incubated on ice for 10 min in the presence of 10 μg/mL FITC-FSL1 or FITC-GML to allow ligands binding and then returned to 37° C. for 60 min. Cells were then fixed for 10 minutes in 4.5% paraformaldehyde and stained for the golgi marker Giantin (1:250, Abcam), and imaged using confocal microscopy.

The conditions of test [4]: severe sepsis; decreased from about 31%; cited from earlier work.

`O=C(Nc1ccccc1)c1cc([N+](=O)[O-])ccc1Cl` [GW9662]: in test [1], the “effect of antagonist pretreatment on LTA and GML inhibition of TNFα-induced neutrophil recruitment” value is “abrogated the inhibitory effect of both LTA and GML”. Also, in test [2], the “effect of antagonist pretreatment on LTA and GML inhibition of MIP2-induced neutrophil recruitment” value is “abrogated the inhibitory effect of both LTA and GML”.
Consider `O=C(Nc1ccncc1)c1cc([N+](=O)[O-])ccc1Cl` [T0070907], for which the “effect of antagonist pretreatment on LTA and GML inhibition of TNFα-induced neutrophil recruitment” value in test [1] was “abrogated the inhibitory effect of both LTA and GML”. Also, the “effect of antagonist pretreatment on LTA and GML inhibition of MIP2-induced neutrophil recruitment” value in test [2] is “abrogated the inhibitory effect of both LTA and GML”.
Turning to FSL1, the “internalization / localization of FITC-labelled ligand” value in test [3] (in the absence of TLR2) is “substantially inhibited with regard to internalization”. Also, the “localization of internalized FITC-labelled ligand” value in test [3] (wild-type macrophages, 60 min, Giantin stain) is reported as “much smaller vesicles, which did not co-localize with Giantin”.
As for Pam2CSK4, in test [1], the “inhibitory properties toward LPS-induced neutrophil emigration” value was “did not exhibit any inhibitory properties” and the “neutrophil recruitment induced by the ligand itself” value was “pro-inflammatory”.
Consider Pam3CSK4, for which, in test [1], the “inhibitory properties toward LPS-induced neutrophil emigration” value is “did not exhibit any inhibitory properties” and the “neutrophil recruitment induced by the ligand itself” value was “pro-inflammatory; also recorded: causes significant neutrophil recruitment into the cremaster tissue”.
Take drotrecogin alfa: in test [4], the mortality result was “about 25%”.
